The source of these data is patent US9447157B2, “Nitration shielding peptides and methods of use thereof” (Augusta University Research Institute, Inc., priority 2013, dated 2016).

For assay [1], the system named is Pulmonary artery smooth muscle cells (PASMC). The experiment in a line: PASMC cell growth (cell count). It counts as cell-based, lamb. The conditions noted are these: SIN-1 500 μM 48 h. Here is the method:
Pulmonary artery smooth muscle cells (PASMC) were grown on a 10 cm dish to 75% confluence, transfected with WT-PKG-1α or Y247F-PKG-1α cDNA using a Qiagen transfection kit, according to manufacturer's instructions, and incubated at 37° C. for 20 h. […] The cells were then trypsinized, seeded onto a 6-well plate at a density of 2.5×10^4 cells per well, and grown for an additional 4 h in serum-free DMEM growth medium containing 1% FBS and antibiotics. The cells were then treated with or without SIN-1 (500 μM) and allowed to grow at 37° C. in the incubator for an additional 48 h. The cellular proliferation was evaluated by counting the cells with a hemacytometer (Cascade Biologicals™, Portland, Oreg.) after the trypsinization of the PASMC monolayers.

The target in assay [2] is T1, PKG-1α (Homo sapiens, UniProt Q13976).
T1 construct: transfected with an expression plasmid containing a full length WT-PKG-1α cDNA; made in house; host or cells: HEK-293T (methods); the results paragraph b527 says PASMC
T1 sequence (Q13976 2-671): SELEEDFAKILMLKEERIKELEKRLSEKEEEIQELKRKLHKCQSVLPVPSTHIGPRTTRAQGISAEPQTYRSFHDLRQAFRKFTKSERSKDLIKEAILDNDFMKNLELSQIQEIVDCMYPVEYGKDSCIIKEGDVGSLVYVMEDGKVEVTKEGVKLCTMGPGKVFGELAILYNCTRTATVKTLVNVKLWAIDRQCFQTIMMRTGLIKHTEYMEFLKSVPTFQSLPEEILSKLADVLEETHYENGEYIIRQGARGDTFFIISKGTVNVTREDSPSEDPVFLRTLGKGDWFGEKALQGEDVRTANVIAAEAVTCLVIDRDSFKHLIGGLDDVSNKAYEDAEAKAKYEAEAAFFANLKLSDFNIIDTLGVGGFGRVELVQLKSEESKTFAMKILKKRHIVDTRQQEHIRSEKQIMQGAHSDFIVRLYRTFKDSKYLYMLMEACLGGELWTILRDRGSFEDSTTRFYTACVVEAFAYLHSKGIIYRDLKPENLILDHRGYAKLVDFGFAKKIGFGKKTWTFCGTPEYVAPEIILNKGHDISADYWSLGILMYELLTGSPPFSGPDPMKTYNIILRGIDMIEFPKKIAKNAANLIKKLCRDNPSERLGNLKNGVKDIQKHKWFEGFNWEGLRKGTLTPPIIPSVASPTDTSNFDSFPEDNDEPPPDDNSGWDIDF
As to the kind of experiment: [3H]cGMP dissociation/exchange assay. It counts as binding. The following applies: SIN-1 500 μM 30 min. Here is the method: WT- and Y247F-PKG-1α were immunopurified, as described above then incubated for 60 min at room temperature with 3 ml of cGMP-binding assay mixture containing 3 μM [^3H]cGMP. This incubation time and dose has been previously experimentally determined to be adequate for the saturation of the cGMP-binding sites in PKG. After incubation, the samples were cooled to 4° C. and divided into 200 μl aliquots per tube. The addition of 100-fold excess unlabeled cGMP at time 0 sec (Bo) initiated the dissociation (exchange) of the bound [^3H]cGMP. The cGMP exchange in each tube was stopped at the appropriate time point by the addition of 2 ml of cold aqueous saturated (NH4)2SO4. The samples were filtered, washed, and the portion of bound [^3H]cGMP at any time point was determined, as described previously.

Assay [3] has as its target T1, PKG-1α. The experiment in a line: PKG protein levels and PKG activity in transfected PASMC. It counts as cell-based. The conditions noted are these: PASMC transfected with WT-PKG-1α, SIN-1 500 μM 48 h. Here is the method:
Therefore, the effect of these events were investigated in PASMC transiently transfected with expression plasmids containing WT- and Y247F-PKG-1α. The effect of nitration on pulmonary arterial smooth muscle cell (PASMC) growth and metabolism was determined. PASMC were transiently transfected with expression plasmids containing WT-PKG-1α, Y247F-PKG-1α or pDEST40 (as a control) for 20 h. Cells were then exposed or not to SIN-1 (500 μM, 48 h) and the effect on PKG protein levels (FIG. 17A) and activity determined (FIG. 17B).
Cells were prepared as previously described (Sud, N., et al., American Journal of Physiology 293, L1444-1453 (2007); Sharma, S., et al., American Journal of Physiology 294, L46-56 (2008)). Briefly, the cellular protein extracts were prepared by homogenizing the cells in lysis buffer (50 mM Tris-HCl, pH 7.6, 0.5% Triton X-100, and 20% glycerol) containing Halt protease inhibitor cocktail (Pierce, Rockford, Ill.). The extracts were then clarified by centrifugation (20,000 g for 20 min at 4° C.). […] Reactive bands were visualized using chemi-luminescence (Pierce Laboratories, Rockford, Ill.) on a Kodak 440CF image station. The band intensity was quantified using Kodak 1D image processing software. […]
Measurement of PKG Catalytic Activity Total PKG activity was determined using a non-radioactive immunoassay in cell lysates, according to the manufacturer's directions. […]

Regarding “3-morpholinosydnonimine N-ethylcarbamide [SIN-1]”, in assay [1], the “Proliferation, WT-PKG-1α transfected PASMC” value is on record as “stimulated”. Moreover, in assay [2], the “[3H]cGMP exchange/dissociation from WT-PKG-1α” value is on record as “enhanced”. Besides, the “cGMP dependent increase in PKG activity, WT-PKG-1α cells” value in assay [3] was “attenuated”.
